Measured values published in PubChem BioAssay (NCI).
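Tested at 5 concentrations; 48 h exposure; 96-well plates; endpoints linearly interpolated, else capped at highest concentration. TGI: total growth inhibition.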

Assays:
Assay in all cases: NCI-60 cell line screen, 48 h
786-0 renal = tested on: 786-0 renal
OVCAR-5 ovarian = tested on: OVCAR-5 ovarian
SK-MEL-5 melanoma = tested on: SK-MEL-5 melanoma
COLO 205 colon = tested on: COLO 205 colon
LOX IMVI melanoma = tested on: LOX IMVI melanoma
HT29 colon = tested on: HT29 colon
XF 498 CNS = tested on: XF 498 CNS
KM20L2 colon = tested on: KM20L2 colon
TK-10 renal = tested on: TK-10 renal
SW-620 colon = tested on: SW-620 colon
HCT-15 colon = tested on: HCT-15 colon
CAKI-1 renal = tested on: CAKI-1 renal
M14 melanoma = tested on: M14 melanoma
K-562 leukemia = tested on: K-562 leukemia
SN12C renal = tested on: SN12C renal
SF-268 CNS = tested on: SF-268 CNS
HOP-18 NSCLC = tested on: HOP-18 NSCLC
SR leukemia = tested on: SR leukemia
OVCAR-8 ovarian = tested on: OVCAR-8 ovarian
SK-OV-3 ovarian = tested on: SK-OV-3 ovarian
NCI-H522 lung = tested on: NCI-H522 lung
SNB-75 CNS = tested on: SNB-75 CNS
DMS 273 small cell lung = tested on: DMS 273 small cell lung
DLD-1 colon = tested on: DLD-1 colon
U251 CNS = tested on: U251 CNS
KM12 colon = tested on: KM12 colon
SNB-19 CNS = tested on: SNB-19 CNS
NCI-H23 lung = tested on: NCI-H23 lung
LXFL 529 NSCLC = tested on: LXFL 529 NSCLC
SNB-78 CNS = tested on: SNB-78 CNS
DMS 114 small cell lung = tested on: DMS 114 small cell lung
SF-295 CNS = tested on: SF-295 CNS
NCI-H226 lung = tested on: NCI-H226 lung
OVCAR-3 ovarian = tested on: OVCAR-3 ovarian
ACHN renal = tested on: ACHN renal
MALME-3M melanoma = tested on: MALME-3M melanoma
RPMI-8226 leukemia = tested on: RPMI-8226 leukemia
NCI-H460 lung = tested on: NCI-H460 lung
SF-539 CNS = tested on: SF-539 CNS
CCRF-CEM leukemia = tested on: CCRF-CEM leukemia
EKVX NSCLC = tested on: EKVX NSCLC
HL-60(TB) leukemia = tested on: HL-60(TB) leukemia
HCC-2998 colon = tested on: HCC-2998 colon
OVCAR-4 ovarian = tested on: OVCAR-4 ovarian
SK-MEL-28 melanoma = tested on: SK-MEL-28 melanoma
IGROV1 ovarian = tested on: IGROV1 ovarian
SK-MEL-2 melanoma = tested on: SK-MEL-2 melanoma
A549 NSCLC = tested on: A549 NSCLC
A498 renal = tested on: A498 renal
HCT-116 colon = tested on: HCT-116 colon
M19-MEL melanoma = tested on: M19-MEL melanoma
RXF 393 renal = tested on: RXF 393 renal
UACC-257 melanoma = tested on: UACC-257 melanoma
UO-31 renal = tested on: UO-31 renal
UACC-62 melanoma = tested on: UACC-62 melanoma
MOLT-4 leukemia = tested on: MOLT-4 leukemia
HOP-62 NSCLC = tested on: HOP-62 NSCLC
BT-549 breast = tested on: BT-549 breast
HOP-92 NSCLC = tested on: HOP-92 NSCLC
MDA-MB-231 breast = tested on: MDA-MB-231 breast
T-47D breast = tested on: T-47D breast
MCF7 breast = tested on: MCF7 breast
MDA-MB-435 = tested on: MDA-MB-435
MDA-N = tested on: MDA-N
NCI/ADR-RES ovarian = tested on: NCI/ADR-RES ovarian
PC-3 prostate = tested on: PC-3 prostate
DU-145 prostate = tested on: DU-145 prostate
HS 578T breast = tested on: HS 578T breast

c1ccc2c(c1)N=C(c1cccc3ccccc13)CC(c1cccc3ccccc13)S2 (stereo unspecified)
TGI (786-0 renal): 13.5 µM | TGI (OVCAR-5 ovarian): 16.8 µM | TGI (SK-MEL-5 melanoma): 22.1 µM | TGI (COLO 205 colon): 28.3 µM | TGI (LOX IMVI melanoma): 11.4 µM | TGI (HT29 colon): 10.1 µM | TGI (XF 498 CNS): 22.1 µM | TGI (KM20L2 colon): 10.4 µM | TGI (TK-10 renal): 25.8 µM | TGI (SW-620 colon): 6.81 µM | TGI (HCT-15 colon): 22.5 µM | TGI (CAKI-1 renal): 13.2 µM | TGI (M14 melanoma): 26.2 µM | TGI (K-562 leukemia): 6.32 µM | TGI (SN12C renal): 15.9 µM | TGI (SF-268 CNS): 20.4 µM | TGI (HOP-18 NSCLC): 13.8 µM | TGI (SR leukemia): 4.89 µM | TGI (OVCAR-8 ovarian): 16.6 µM | TGI (SK-OV-3 ovarian): 29.8 µM | TGI (NCI-H522 lung): 8.44 µM | TGI (SNB-75 CNS): 19.1 µM | TGI (DMS 273 small cell lung): > 44.7 µM | TGI (DLD-1 colon): 16.2 µM | TGI (U251 CNS): 6.08 µM | TGI (KM12 colon): 9.6 µM | TGI (SNB-19 CNS): 12.9 µM | TGI (NCI-H23 lung): 12.5 µM | TGI (LXFL 529 NSCLC): 11.4 µM | TGI (SNB-78 CNS): 33.4 µM | TGI (DMS 114 small cell lung): 9.96 µM | TGI (SF-295 CNS): 27.2 µM | TGI (NCI-H226 lung): 24.6 µM | TGI (OVCAR-3 ovarian): 9.68 µM | TGI (ACHN renal): 23.5 µM | TGI (MALME-3M melanoma): 28.7 µM | TGI (RPMI-8226 leukemia): 4.85 µM | TGI (NCI-H460 lung): 19.5 µM | TGI (SF-539 CNS): 14.5 µM | TGI (CCRF-CEM leukemia): 4.67 µM | TGI (EKVX NSCLC): 28.7 µM | TGI (HL-60(TB) leukemia): 3.56 µM | TGI (HCC-2998 colon): 11.2 µM | TGI (OVCAR-4 ovarian): 12.4 µM | TGI (SK-MEL-28 melanoma): 25.9 µM | TGI (IGROV1 ovarian): 19.7 µM | TGI (SK-MEL-2 melanoma): 33 µM | TGI (A549 NSCLC): 41.9 µM | TGI (A498 renal): 20.8 µM | TGI (HCT-116 colon): 12.9 µM | TGI (M19-MEL melanoma): 20.3 µM | TGI (RXF 393 renal): 16.5 µM | TGI (UACC-257 melanoma): 31.8 µM | TGI (UO-31 renal): 23.6 µM | TGI (UACC-62 melanoma): 19.8 µM | TGI (MOLT-4 leukemia): 5.15 µM | TGI (HOP-62 NSCLC): 26.1 µM

CC(C)Cc1c(C#N)c(C#N)c(N)n1Cc1ccccc1
TGI (786-0 renal): > 100 µM | TGI (OVCAR-5 ovarian): > 100 µM | TGI (BT-549 breast): > 100 µM | TGI (SK-MEL-5 melanoma): > 100 µM | TGI (COLO 205 colon): > 100 µM | TGI (LOX IMVI melanoma): > 100 µM | TGI (HT29 colon): > 100 µM | TGI (HOP-92 NSCLC): > 100 µM | TGI (MDA-MB-231 breast): > 100 µM | TGI (T-47D breast): > 100 µM | TGI (TK-10 renal): > 100 µM | TGI (SW-620 colon): > 100 µM | TGI (HCT-15 colon): > 100 µM | TGI (CAKI-1 renal): > 100 µM | TGI (M14 melanoma): > 100 µM | TGI (K-562 leukemia): > 100 µM | TGI (SN12C renal): > 100 µM | TGI (MCF7 breast): > 100 µM | TGI (SF-268 CNS): > 100 µM | TGI (SR leukemia): > 100 µM | TGI (OVCAR-8 ovarian): > 100 µM | TGI (SK-OV-3 ovarian): > 100 µM | TGI (NCI-H522 lung): > 100 µM | TGI (SNB-75 CNS): > 100 µM | TGI (U251 CNS): > 100 µM | TGI (KM12 colon): > 100 µM | TGI (SNB-19 CNS): > 100 µM | TGI (NCI-H23 lung): > 100 µM | TGI (SF-295 CNS): > 100 µM | TGI (NCI-H226 lung): > 100 µM | TGI (MDA-MB-435): > 100 µM | TGI (OVCAR-3 ovarian): > 100 µM | TGI (ACHN renal): > 100 µM | TGI (MDA-N): > 100 µM | TGI (NCI/ADR-RES ovarian): > 100 µM | TGI (MALME-3M melanoma): > 100 µM | TGI (RPMI-8226 leukemia): > 100 µM | TGI (PC-3 prostate): > 100 µM | TGI (SF-539 CNS): > 100 µM | TGI (CCRF-CEM leukemia): > 100 µM | TGI (EKVX NSCLC): > 100 µM | TGI (HL-60(TB) leukemia): > 100 µM | TGI (HCC-2998 colon): > 100 µM | TGI (OVCAR-4 ovarian): > 100 µM | TGI (DU-145 prostate): > 100 µM | TGI (IGROV1 ovarian): > 100 µM | TGI (SK-MEL-2 melanoma): > 100 µM | TGI (A549 NSCLC): > 100 µM | TGI (A498 renal): > 100 µM | TGI (HCT-116 colon): > 100 µM | TGI (HS 578T breast): > 100 µM | TGI (RXF 393 renal): > 100 µM | TGI (UACC-257 melanoma): > 100 µM | TGI (UO-31 renal): > 100 µM | TGI (UACC-62 melanoma): > 100 µM | TGI (MOLT-4 leukemia): > 100 µM | TGI (HOP-62 NSCLC): > 100 µM

CCOC(=O)c1ccc(C(=O)/C(C(=O)OC(C)(C)C)=C2\CCCN2C)n1C
TGI (786-0 renal): > 100 µM | TGI (OVCAR-5 ovarian): > 100 µM | TGI (BT-549 breast): > 100 µM | TGI (SK-MEL-5 melanoma): 52.9 µM | TGI (COLO 205 colon): > 100 µM | TGI (LOX IMVI melanoma): > 100 µM | TGI (HT29 colon): > 100 µM | TGI (MDA-MB-231 breast): > 100 µM | TGI (T-47D breast): > 100 µM | TGI (TK-10 renal): > 100 µM | TGI (SW-620 colon): > 100 µM | TGI (HCT-15 colon): > 100 µM | TGI (CAKI-1 renal): > 100 µM | TGI (M14 melanoma): > 100 µM | TGI (K-562 leukemia): > 100 µM | TGI (SN12C renal): > 100 µM | TGI (MCF7 breast): > 100 µM | TGI (SF-268 CNS): > 100 µM | TGI (SR leukemia): > 100 µM | TGI (OVCAR-8 ovarian): > 100 µM | TGI (SK-OV-3 ovarian): 95.1 µM | TGI (SNB-75 CNS): 77.8 µM | TGI (U251 CNS): > 100 µM | TGI (KM12 colon): > 100 µM | TGI (SNB-19 CNS): > 100 µM | TGI (NCI-H23 lung): > 100 µM | TGI (SF-295 CNS): > 100 µM | TGI (NCI-H226 lung): > 100 µM | TGI (MDA-MB-435): > 100 µM | TGI (OVCAR-3 ovarian): > 100 µM | TGI (ACHN renal): > 100 µM | TGI (MDA-N): > 100 µM | TGI (NCI/ADR-RES ovarian): > 100 µM | TGI (MALME-3M melanoma): > 100 µM | TGI (RPMI-8226 leukemia): > 100 µM | TGI (NCI-H460 lung): > 100 µM | TGI (PC-3 prostate): > 100 µM | TGI (SF-539 CNS): > 100 µM | TGI (CCRF-CEM leukemia): > 100 µM | TGI (EKVX NSCLC): > 100 µM | TGI (HL-60(TB) leukemia): 70.5 µM | TGI (HCC-2998 colon): > 100 µM | TGI (OVCAR-4 ovarian): > 100 µM | TGI (SK-MEL-28 melanoma): > 100 µM | TGI (DU-145 prostate): > 100 µM | TGI (IGROV1 ovarian): > 100 µM | TGI (SK-MEL-2 melanoma): > 100 µM | TGI (A549 NSCLC): > 100 µM | TGI (A498 renal): > 100 µM | TGI (HCT-116 colon): > 100 µM | TGI (HS 578T breast): > 100 µM | TGI (RXF 393 renal): > 100 µM | TGI (UACC-257 melanoma): > 100 µM | TGI (UO-31 renal): > 100 µM | TGI (UACC-62 melanoma): > 100 µM | TGI (MOLT-4 leukemia): > 100 µM | TGI (HOP-62 NSCLC): > 100 µM
